Results from patent US20120083013A1, “GLUCOSYLTRANSFERASE SPECIFIC TO POSITION-4 OF FUROFURAN-TYPE LIGNAN, AND POLYNUCLEOTIDE ENCODING SAME” (Suntory Holdings Limited, priority 2009, published 2012).

How the values were obtained:
RengUGT14 = experiment: glycosyl acceptor selectivity of recombinant RengUGT14 (standard enzyme reaction, HPLC analysis); format: biochemical, Forsythia koreana; details: 1 mM UDP-glucose, 100 μM glycosyl acceptor substrate, pH 7.5, 30° C., one hour; for transglycosylation activity (activity against the lignan of structural formula (Ia) made 100): relative activity as glycosyl acceptor substrate
Protocol: To clarify the biochemical functions of the enzymes, the two enzymes were expressed in Escherichia coli. Using the plasmid for two RengUGT Escherichia coli expression obtained above, Escherichia coli BL21 (DE3) strain was transformed in a conventional manner. The resulting transformants were shake cultured in 4 ml of LB medium (10 g/l tryptone peptone, 5 g/l yeast extract, 1 g/l NaCl) containing 50 μg/ml of ampicillin at 37° C. overnight. When the cells reached the stationary phase, 4 ml of the culture broth was inoculated onto 80 ml of fresh medium of the same composition, followed by shake culture at 37° C. At the point when the cell turbidity (OD 600) reached approximately 0.5, IPTG in a final concentration of 0.5 mM was added to the cells, followed by shake culture at 18° C. for 20 hours. The following procedures were all carried out at 4° C. The transformants cultured were collected by centrifugation (5,000×g, 10 mins.) and suspended by adding 1 ml/g cell of Buffer S (20 mM HEPES buffer (pH 7.5), 20 mM imidazole and 14 mM […]. Subsequently, the suspension was ultrasonicated (15 secs×8 times) and then centrifuged (15,000×g, 15 mins.). The supernatant obtained was recovered as a crude enzyme solution. The crude enzyme solution was loaded onto His SpinTrap (GE Healthcare), which had been equilibrated with Buffer S, and centrifuged (70×g, 30 secs.). After washing with the buffer, the proteins bound to the column were eluted stepwise with 5 ml each of Buffer S containing 100 mM and 500 mM imidazole. In each of the eluted fractions, the buffer was replaced through a Microcon YM-30 (Amicon) by 20 mM HEPES buffer (pH 7.5)/14 mM β-mercapto ethanol (magnification of dialysis, ×1000). As a result of the SDS-PAGE analysis, in the fraction eluted with […], the protein was confirmed at approximately 50 KDa of the estimated molecular weight for the two RengUGTs. This fraction was used for the enzyme analysis (FIG. 2). Conditions for the standard enzyme reaction are as follows. […] Based on the analysis that the spectra from 220 nm to 330 nm were measured using SPD-10AV (Shimadzu Corp.), search was made for substances having two absorption maxima (230 nm and 280 nm) inherent to lignans. Under the conditions, the lignan of structural formula (Ia) was detected at approximately 11.6 minutes, the lignan of structural formula (Ib) at approximately 12.2 minutes, the lignan of structural formula (Ic) at approximately 13.8 minutes, and the lignan of structural formula (V) at approximately 9.8 minutes. The expression level of RengUGT14 recombinant protein was high in Escherichia coli (FIG. 2), and the glycosyl acceptor selectivity was evaluated using this enzyme. […]

RengUGT13 = experiment: glucosyltransferase reaction of recombinant RengUGT13 with lignan (HPLC, LC-MS of the product); format: biochemical, Forsythia koreana; details: 1 mM UDP-glucose, 100 μM glycosyl acceptor substrate, pH 7.5, 30° C., one hour
Protocol: To clarify the biochemical functions of the enzymes, the two enzymes were expressed in Escherichia coli. Using the plasmid for two RengUGT Escherichia coli expression obtained above, Escherichia coli BL21 (DE3) strain was transformed in a conventional manner. The resulting transformants were shake cultured in 4 ml of LB medium (10 g/l tryptone peptone, 5 g/l yeast extract, 1 g/l NaCl) containing 50 μg/ml of ampicillin at 37° C. overnight. When the cells reached the stationary phase, 4 ml of the culture broth was inoculated onto 80 ml of fresh medium of the same composition, followed by shake culture at 37° C. […]
Lc-2010c (Shimadzu Corp.) was used for LC; eluent A: 0.1% TFA and eluent B: 0.1% TFA/90% acetonitrile as the moving phase; Develosil-C30-UG5 (Nomura Chemical, 4.6 mm×150 mm) as the column at 40° C. […] Based on the analysis that the spectra from 220 nm to 330 nm were measured using SPD-10AV (Shimadzu Corp.), search was made for substances having two absorption maxima (230 nm and 280 nm) inherent to lignans. Under the conditions, the lignan of structural formula (Ia) was detected at approximately 11.6 minutes, the lignan of structural formula (Ib) at approximately 12.2 minutes, the lignan of structural formula (Ic) at approximately 13.8 minutes, and the lignan of structural formula (V) at approximately 9.8 minutes. […]

Row | Compound | glucose transfer to the lignan by RengUGT14 (product peak at HPLC, monoglucoside by LC-MS) (RengUGT14) | transglycosylation activity (activity against the lignan of structural formula (Ia) made 100) (RengUGT14) | glucose transfer to the lignan by RengUGT13 (product peak at HPLC, monoglucoside by LC-MS) (RengUGT13)
1 | COc1cc([C@H]2OC[C@H]3[C@@H]2CO[C@@H]3c2ccc(O)c(OC)c2)ccc1O [structural formula (Ia)] | activity of transferring one molecule of glucose | 100 | activity of transferring one molecule of glucose
2 | COc1cc([C@H]2OC[C@H]3[C@@H]2CO[C@H]3c2ccc(OC)c(OC)c2)ccc1O [structural formula (Ic)] | – | 128 | –
3 | COc1cc([C@H]2OC[C@H]3[C@@H]2CO[C@H]3c2ccc(O)c(OC)c2)ccc1O [structural formula (Ib)] | – | 112 | –
